ChEMBL document CHEMBL1131977, “Synthesis and in vitro activity of new oxazolidinone antibacterial agents having substituted isoxazoles” (1999)
Converted amounts (≈) assume the structure as drawn.

Legend:
Format in all cases: functional
Streptococcus pyogenes [1] = experiment: In vitro antibacterial activity against Streptococcus pyogenes C6003 (S.p.2).
Enterococcus faecalis = experiment: In vitro antibacterial activity against Enterococcus faecalis C6291 (E.f.1).
Streptococcus pyogenes [2] = experiment: In vitro antibacterial activity against Streptococcus pyogenes ATCC 8668 (S.p.1).
[3] = test system: Staphylococcus epidermidis; experiment: In vitro antibacterial activity against Staphylococcus epidermis (S.e.2) C2235.
Enterococcus faecium [4] = experiment: In vitro antibacterial activity against vancomycin-resistant Enterococcus faecium C6487 (VRE).
Staphylococcus aureus [5] = experiment: In vitro antibacterial activity against Staphylococcus aureus (S. a.) ATCC 29213.
Staphylococcus aureus [6] = experiment: In vitro antibacterial activity against methicillin-resistant Staphylococcus aureus (MRSA) C6068.
Staphylococcus aureus [7] = experiment: In vitro antibacterial activity against methicillin-susceptible Staphylococcus aureus (MSSA) C2214.
Staphylococcus aureus [8] = experiment: In vitro antibacterial activity against ciprofloxacin-resistant Staphylococcus aureus (CRSA) C6043.
Enterococcus faecium [9] = experiment: In vitro antibacterial activity against Enterococcus faecium C6301 (E.f.2).
[10] = test system: Staphylococcus epidermidis; experiment: In vitro antibacterial activity against Staphylococcus epidermis (S.e.1) […].

Structure (SMILES)	MIC (Streptococcus pyogenes [1]) [µg/mL]	MIC (Enterococcus faecalis) [µg/mL]	MIC (Streptococcus pyogenes [2]) [µg/mL]	MIC [3] [µg/mL]	MIC (Enterococcus faecium [4]) [µg/mL]	MIC (Staphylococcus aureus [5]) [µg/mL]	MIC (Staphylococcus aureus [6]) [µg/mL]	MIC (Staphylococcus aureus [7]) [µg/mL]	MIC (Staphylococcus aureus [8]) [µg/mL]	MIC (Enterococcus faecium [9]) [µg/mL]	MIC [10] [µg/mL]
CC(=O)NC[C@H]1CN(c2ccc(N3CCN(C(=O)c4cccs4)CC3)c(F)c2)C(=O)O1	1 (≈ 2.24 µM)	2 (≈ 4.48 µM)	1 (≈ 2.24 µM)	1 (≈ 2.24 µM)	2 (≈ 4.48 µM)	2 (≈ 4.48 µM)	1 (≈ 2.24 µM)	2 (≈ 4.48 µM)	2 (≈ 4.48 µM)	2 (≈ 4.48 µM)	0.5 (≈ 1.12 µM)
CC(=O)NC[C@H]1CN(c2ccc(N3CCN(Cc4cc(-c5ccc(C#N)cc5)no4)CC3)c(F)c2)C(=O)O1	2 (≈ 3.86 µM)	16 (≈ 30.9 µM)	2 (≈ 3.86 µM)	8 (≈ 15.4 µM)	8 (≈ 15.4 µM)	16 (≈ 30.9 µM)	8 (≈ 15.4 µM)	16 (≈ 30.9 µM)	16 (≈ 30.9 µM)	16 (≈ 30.9 µM)	4 (≈ 7.71 µM)
CC(=O)NC[C@H]1CN(c2ccc(N3CCN(C(=O)c4nccs4)CC3)c(F)c2)C(=O)O1	1 (≈ 2.23 µM)	4 (≈ 8.94 µM)	1 (≈ 2.23 µM)	2 (≈ 4.47 µM)	4 (≈ 8.94 µM)	4 (≈ 8.94 µM)	2 (≈ 4.47 µM)	4 (≈ 8.94 µM)	4 (≈ 8.94 µM)	4 (≈ 8.94 µM)	1 (≈ 2.23 µM)
CC(=O)NC[C@H]1CN(c2ccc(N3CCN(C(=O)c4cc(-c5cccs5)no4)CC3)c(F)c2)C(=O)O1	0.5 (≈ 0.974 µM)	1 (≈ 1.95 µM)	0.5 (≈ 0.974 µM)	1 (≈ 1.95 µM)	1 (≈ 1.95 µM)	1 (≈ 1.95 µM)	1 (≈ 1.95 µM)	1 (≈ 1.95 µM)	1 (≈ 1.95 µM)	1 (≈ 1.95 µM)	0.25 (≈ 0.487 µM)
CC(=O)NC[C@H]1CN(c2ccc(N3CCN(C(=O)c4cc(C(=O)N(C)C)no4)CC3)c(F)c2)C(=O)O1	1 (≈ 1.99 µM)	4 (≈ 7.96 µM)	1 (≈ 1.99 µM)	2 (≈ 3.98 µM)	4 (≈ 7.96 µM)	8 (≈ 15.9 µM)	2 (≈ 3.98 µM)	8 (≈ 15.9 µM)	8 (≈ 15.9 µM)	4 (≈ 7.96 µM)	2 (≈ 3.98 µM)
CC(=O)NC[C@H]1CN(c2ccc(N3CCN(Cc4cc(C)no4)CC3)c(F)c2)C(=O)O1	16 (≈ 37.1 µM)	16 (≈ 37.1 µM)	16 (≈ 37.1 µM)	16 (≈ 37.1 µM)	16 (≈ 37.1 µM)	16 (≈ 37.1 µM)	16 (≈ 37.1 µM)	16 (≈ 37.1 µM)	16 (≈ 37.1 µM)	16 (≈ 37.1 µM)	16 (≈ 37.1 µM)
CC(=O)NC[C@H]1CN(c2ccc(N3CCN(C(=O)c4cc(Br)no4)CC3)c(F)c2)C(=O)O1	1 (≈ 1.96 µM)	2 (≈ 3.92 µM)	1 (≈ 1.96 µM)	2 (≈ 3.92 µM)	2 (≈ 3.92 µM)	4 (≈ 7.84 µM)	1 (≈ 1.96 µM)	2 (≈ 3.92 µM)	2 (≈ 3.92 µM)	4 (≈ 7.84 µM)	1 (≈ 1.96 µM)
CC(=O)NC[C@H]1CN(c2ccc(N3CCN(Cc4cc(-c5cccs5)no4)CC3)c(F)c2)C(=O)O1	1 (≈ 2 µM)	2 (≈ 4 µM)	1 (≈ 2 µM)	1 (≈ 2 µM)	22 (≈ 44 µM)	4 (≈ 8.01 µM)	4 (≈ 8.01 µM)	4 (≈ 8.01 µM)	2 (≈ 4 µM)	2 (≈ 4 µM)	4 (≈ 8.01 µM)
CC(=O)NC[C@H]1CN(c2ccc(N3CCN(C(=O)c4cc(C(=O)O)no4)CC3)c(F)c2)C(=O)O1	16 (≈ 33.7 µM)	> 32	16 (≈ 33.7 µM)	> 32		> 32		> 32		> 32	> 32
CC(=O)NC[C@H]1CN(c2ccc(N3CCN(Cc4cc(-c5ccccn5)no4)CC3)c(F)c2)C(=O)O1	0.5 (≈ 1.01 µM)	2 (≈ 4.04 µM)	0.5 (≈ 1.01 µM)	1 (≈ 2.02 µM)	2 (≈ 4.04 µM)	2 (≈ 4.04 µM)	2 (≈ 4.04 µM)	4 (≈ 8.09 µM)	2 (≈ 4.04 µM)	2 (≈ 4.04 µM)	1 (≈ 2.02 µM)
CC(=O)NC[C@H]1CN(c2ccc(N3CCN(C(=O)c4ccno4)CC3)c(F)c2)C(=O)O1	0.5 (≈ 1.16 µM)	2 (≈ 4.64 µM)	0.5 (≈ 1.16 µM)	1 (≈ 2.32 µM)	22 (≈ 51 µM)	2 (≈ 4.64 µM)	1 (≈ 2.32 µM)	2 (≈ 4.64 µM)	2 (≈ 4.64 µM)	1 (≈ 2.32 µM)	1 (≈ 2.32 µM)
CC(=O)NC[C@H]1CN(c2ccc(N3CCN(Cc4cc(/C=C/c5ccccc5)no4)CC3)c(F)c2)C(=O)O1	2 (≈ 3.85 µM)	16 (≈ 30.8 µM)	2 (≈ 3.85 µM)	16 (≈ 30.8 µM)	8 (≈ 15.4 µM)	> 32	32 (≈ 61.6 µM)	> 32		8 (≈ 15.4 µM)	2 (≈ 3.85 µM)
CC(=O)NC[C@H]1CN(c2ccc(N3CCN(C(=O)c4cc(C(N)=O)no4)CC3)c(F)c2)C(=O)O1	0.25 (≈ 0.527 µM)	1 (≈ 2.11 µM)	0.25 (≈ 0.527 µM)	0.5 (≈ 1.05 µM)	1 (≈ 2.11 µM)	2 (≈ 4.22 µM)	1 (≈ 2.11 µM)	2 (≈ 4.22 µM)	2 (≈ 4.22 µM)	1 (≈ 2.11 µM)	0.5 (≈ 1.05 µM)
CC(=O)NC[C@H]1CN(c2ccc(N3CCN(C(=O)c4cc(C#N)no4)CC3)c(F)c2)C(=O)O1	0.25 (≈ 0.548 µM)	2 (≈ 4.38 µM)	0.25 (≈ 0.548 µM)	0.5 (≈ 1.1 µM)	1 (≈ 2.19 µM)	2 (≈ 4.38 µM)	1 (≈ 2.19 µM)	2 (≈ 4.38 µM)	2 (≈ 4.38 µM)	1 (≈ 2.19 µM)	0.5 (≈ 1.1 µM)
CC(=O)NC[C@H]1CN(c2ccc(N3CCN(Cc4cc(-c5ccc(C)cc5)no4)CC3)c(F)c2)C(=O)O1	4 (≈ 7.88 µM)	16 (≈ 31.5 µM)	4 (≈ 7.88 µM)	8 (≈ 15.8 µM)	8 (≈ 15.8 µM)	32 (≈ 63 µM)	8 (≈ 15.8 µM)	32 (≈ 63 µM)	32 (≈ 63 µM)	8 (≈ 15.8 µM)	4 (≈ 7.88 µM)
CC(=O)NC[C@H]1CN(c2ccc(N3CCN(C(=O)c4cc(O)no4)CC3)c(F)c2)C(=O)O1	16 (≈ 35.8 µM)	> 32	16 (≈ 35.8 µM)	> 32		> 32		> 32		> 32	> 32
CC(=O)NC[C@H]1CN(c2ccc(N3CCN(C(=O)c4cc(OCCF)no4)CC3)c(F)c2)C(=O)O1	0.5 (≈ 1.01 µM)	2 (≈ 4.05 µM)	0.5 (≈ 1.01 µM)	2 (≈ 4.05 µM)	1 (≈ 2.03 µM)	4 (≈ 8.11 µM)	2 (≈ 4.05 µM)	2 (≈ 4.05 µM)	2 (≈ 4.05 µM)	1 (≈ 2.03 µM)	1 (≈ 2.03 µM)
CC(=O)NC[C@H]1CN(c2ccc(N3CCOCC3)c(F)c2)C(=O)O1 [LINEZOLID]	0.5 (≈ 1.48 µM)		0.5 (≈ 1.48 µM)	1 (≈ 2.96 µM)	2 (≈ 5.93 µM)		1 (≈ 2.96 µM)			1 (≈ 2.96 µM)	1 (≈ 2.96 µM)
CN[C@H](CC(C)C)C(=O)N[C@H]1C(=O)N[C@@H](CC(N)=O)C(=O)N[C@H]2C(=O)N[C@H]3C(=O)N[C@H](C(=O)N[C@H](C(=O)O)c4cc(O)cc(O)c4-c4cc3ccc4O)[C@H](O)c3ccc(c(Cl)c3)Oc3cc2cc(c3O[C@@H]2O[C@H](CO)[C@@H](O)[C@H](O)[C@H]2O[C@H]2C[C@](C)(N)[C@H](O)[C@H](C)O2)Oc2ccc(cc2Cl)[C@H]1O [VANCOMYCIN]	0.25 (≈ 0.173 µM)	1 (≈ 0.69 µM)	0.25 (≈ 0.173 µM)		> 32						0.5 (≈ 0.345 µM)
